Source: ChEMBL document CHEMBL5715954, “Silencing c-Myc translation as a therapeutic strategy through targeting PI3Kδ and CK1ε in hematological malignancies” (Blood, 2017)
pEC50: −log10 of the molar value. Activity calls are given as the source filed them. No cut-off for these calls is given here.

Experiments:
[1] = target: T1, mTORC1 (Homo sapiens) (UniProt P42345+Q8N122+Q9BVC4); experiment: Inhibition of mTORC1 in human LY7 cells assessed as reduction in c-Myc expression at 3 uM measured after 24 hrs in presence of bortezomib by Western blot analysis; format: cell-based
[2] = target: T2, Casein kinase I isoform epsilon (Homo sapiens, UniProt P49674); experiment: Inhibition of recombinant human full-length N-terminal GST-tagged CK1epsilon expressed in baculovirus infected Sf9 insect cells at 50 uM using casein as substrate measured after 60 mins by ADP-glo kinase assay relative to control
Target sequence in this assay (P49674 whole entry, looked up, canonical isoform): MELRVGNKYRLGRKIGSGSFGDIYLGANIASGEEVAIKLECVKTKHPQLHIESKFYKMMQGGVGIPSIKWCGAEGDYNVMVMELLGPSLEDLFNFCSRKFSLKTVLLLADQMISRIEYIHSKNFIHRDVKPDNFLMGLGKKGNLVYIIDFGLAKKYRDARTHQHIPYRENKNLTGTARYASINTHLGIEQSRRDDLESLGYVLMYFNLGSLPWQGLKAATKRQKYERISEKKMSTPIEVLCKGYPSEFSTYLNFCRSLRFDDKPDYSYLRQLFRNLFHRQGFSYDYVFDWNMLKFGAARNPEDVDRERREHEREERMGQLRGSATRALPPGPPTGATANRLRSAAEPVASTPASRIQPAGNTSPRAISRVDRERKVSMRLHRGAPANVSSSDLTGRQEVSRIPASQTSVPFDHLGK

[3] = target: T1, mTORC1 (Homo sapiens); experiment: Inhibition of mTORC1 in human CLL cells assessed as reduction in c-Myc expression at 5 uM measured after 24 hrs in presence of bortezomib by Western blot analysis; format: cell-based; details: CLL cell
[4] = target: T1, mTORC1 (Homo sapiens); experiment: Inhibition of mTORC1 in human SLL cells assessed as reduction in 4E-BP1 phosphorylation at 5 uM measured after 24 hrs in presence of bortezomib by Western blot analysis; format: cell-based
[5] = test system: MZL; experiment: Induction of apoptosis in human MZL cells assessed as increase in cleaved-PARP expression at 5 uM measured after 24 hrs in presence of bortezomib by Western blot analysis; format: functional, cell-based
[6] = target: T3, Phosphatidylinositol 4,5-bisphosphate 3-kinase catalytic subunit delta isoform (Homo sapiens) (UniProt O00329); experiment: Inhibition of PI3Kdelta in human DB cells assessed as reduction in AKT phosphorylation at S473 residue at 1 uM measured after 4 hrs relative to control; format: cell-based
T3 sequence (whole entry): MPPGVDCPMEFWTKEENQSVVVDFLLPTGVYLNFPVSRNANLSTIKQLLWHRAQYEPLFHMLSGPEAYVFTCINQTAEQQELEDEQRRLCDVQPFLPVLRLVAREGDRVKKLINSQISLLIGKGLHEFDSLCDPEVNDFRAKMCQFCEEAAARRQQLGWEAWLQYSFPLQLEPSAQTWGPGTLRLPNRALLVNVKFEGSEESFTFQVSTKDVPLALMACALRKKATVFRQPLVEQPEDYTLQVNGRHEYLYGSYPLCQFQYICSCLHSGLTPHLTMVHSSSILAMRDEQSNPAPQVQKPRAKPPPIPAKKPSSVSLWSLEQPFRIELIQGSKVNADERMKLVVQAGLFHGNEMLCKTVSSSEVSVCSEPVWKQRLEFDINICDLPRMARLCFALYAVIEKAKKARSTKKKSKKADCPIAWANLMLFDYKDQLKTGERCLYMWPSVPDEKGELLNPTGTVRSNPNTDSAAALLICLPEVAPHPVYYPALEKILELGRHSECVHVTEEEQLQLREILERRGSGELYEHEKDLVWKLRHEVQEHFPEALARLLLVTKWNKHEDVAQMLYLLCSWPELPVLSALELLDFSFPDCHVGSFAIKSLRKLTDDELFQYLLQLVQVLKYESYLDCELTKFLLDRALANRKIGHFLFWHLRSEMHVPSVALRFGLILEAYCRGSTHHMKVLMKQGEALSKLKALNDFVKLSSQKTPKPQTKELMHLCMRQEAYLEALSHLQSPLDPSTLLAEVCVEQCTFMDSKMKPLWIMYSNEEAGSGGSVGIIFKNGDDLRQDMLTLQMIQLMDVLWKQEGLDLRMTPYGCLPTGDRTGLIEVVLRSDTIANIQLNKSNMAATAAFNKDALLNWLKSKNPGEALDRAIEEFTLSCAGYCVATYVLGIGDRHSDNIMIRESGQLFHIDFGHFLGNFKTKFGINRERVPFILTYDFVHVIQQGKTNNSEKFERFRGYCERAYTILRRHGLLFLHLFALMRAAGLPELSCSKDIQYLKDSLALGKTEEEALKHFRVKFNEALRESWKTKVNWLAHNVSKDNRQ

[7] = target: Myc proto-oncogene protein (Homo sapiens) (UniProt P01106); experiment: Inhibition of c-Myc in human LY7 cells assessed as reduction in E2F1 expression at 3 uM incubated for 24 hrs in presence of carfilzomib by Western blot analysis; format: cell-based
[8] = target: T3, Phosphatidylinositol 4,5-bisphosphate 3-kinase catalytic subunit delta isoform (Homo sapiens); experiment: Inhibition of PI3Kdelta in human THP-1 cells assessed as reduction in AKT phosphorylation at S473 residue measured after 4 hrs; format: cell-based; details: dose 10-10000 nM
[9] = target: T1, mTORC1 (Homo sapiens); experiment: Inhibition of mTORC1 in human CLL cells assessed as reduction in 4E-BP1 phosphorylation at 5 uM measured after 24 hrs in presence of carfilzomib by Western blot analysis; format: cell-based; details: CLL cell
[10] = target: Myc proto-oncogene protein (Homo sapiens) (UniProt P01106); experiment: Inhibition of c-Myc in human LY7 cells assessed as reduction in eIF4B expression at 3 uM incubated for 24 hrs in presence of carfilzomib by Western blot analysis; format: cell-based
[11] = target: T1, mTORC1 (Homo sapiens); experiment: Inhibition of mTORC1 in human LY10 cells assessed as reduction in 4E-BP1 phosphorylation at 3 uM measured after 24 hrs in presence of carfilzomib by Western blot analysis; format: cell-based
[12] = target: T2, Casein kinase I isoform epsilon; experiment: Inhibition of recombinant human full-length N-terminal GST-tagged CK1epsilon expressed in baculovirus infected Sf9 insect cells using casein as substrate measured after 60 mins by ADP-glo kinase assay
Target sequence in this assay (P49674 whole entry, canonical isoform): as the sequence (P49674 whole entry, looked up, canonical isoform) above

[13] = target: T1, mTORC1 (Homo sapiens); experiment: Inhibition of mTORC1 in human PF-382 cells assessed as reduction in 4E-BP1 phosphorylation at 5 uM measured after 24 hrs in presence of carfilzomib by Western blot analysis; format: cell-based
[14] = target: T1, mTORC1 (Homo sapiens); experiment: Inhibition of mTORC1 in human OCILY7 cells transfected with c-myc-5'-UTR-luciferase construct assessed as reduction in c-myc translation at 3 to 5 uM incubated for 24 hrs in presence of carfilzomib by luciferase reporter gene assay; format: cell-based; details: dose 3-5 µM
[15] = test system: OCI-Ly7; experiment: Cytotoxicity against human OCILY7 cells transfected with empty vector assessed as reduction in cell viability at 7.5 to 25 uM incubated for 24 hrs by cell-titer glo assay; format: functional, cell-based; details: dose 7.5-25 µM
[16] = test system: NCI-H929; experiment: Cytotoxicity against human NCI-H929 cells transduced with an eIF4E-overexpressing plasmid assessed as reduction in cell viability at 5 uM incubated for 24 hrs in presence of carfilzomib by cell-titer glo assay; format: functional, cell-based
[17] = Inhibition of PI3Kdelta/CK1epsilon in human OCILY7 cells transfected with c-myc-5'-UTR-luciferase construct assessed as reduction in c-myc translation at 15 uM incubated for 24 hrs by luciferase reporter gene assay relative to control; details: OCI-Ly7
[18] = target: T2, Casein kinase I isoform epsilon; experiment: Inhibition of CK1epsilon in human LY7 cells assessed as reduction in CK1epsilon autophosphorylation at 10 to 25 uM preincubated for 1 hr followed by addition of PP2A inhibitor calyculin A and measured after 15 to 60 mins by Western blot analysis; format: cell-based; details: dose 10-25 µM, time lower 75.0 min, time upper […]
Target sequence in this assay (P49674 whole entry, looked up, canonical isoform): as the sequence (P49674 whole entry, looked up, canonical isoform) above

[19] = target: T1, mTORC1 (Homo sapiens); experiment: Inhibition of mTORC1 in human NCI-H929 cells assessed as reduction in 4E-BP1 phosphorylation at 5 uM measured after 24 hrs by Western blot analysis; format: cell-based
[20] = target: T1, mTORC1 (Homo sapiens); experiment: Inhibition of mTORC1 in human NCI-H929 cells transduced with an eIF4E-overexpressing plasmid assessed as reduction in c-Myc expression at 5 uM incubated for 24 hrs in presence of carfilzomib by Western blot analysis; format: cell-based
[21] = target: T1, mTORC1 (Homo sapiens); experiment: Inhibition of mTORC1 in human NCI-H929 cells assessed as reduction in 4E-BP1 phosphorylation at 5 uM measured after 24 hrs in presence of carfilzomib by Western blot analysis; format: cell-based

T1 sequence (Q8N122 whole entry, looked up, other chains not shown, canonical isoform): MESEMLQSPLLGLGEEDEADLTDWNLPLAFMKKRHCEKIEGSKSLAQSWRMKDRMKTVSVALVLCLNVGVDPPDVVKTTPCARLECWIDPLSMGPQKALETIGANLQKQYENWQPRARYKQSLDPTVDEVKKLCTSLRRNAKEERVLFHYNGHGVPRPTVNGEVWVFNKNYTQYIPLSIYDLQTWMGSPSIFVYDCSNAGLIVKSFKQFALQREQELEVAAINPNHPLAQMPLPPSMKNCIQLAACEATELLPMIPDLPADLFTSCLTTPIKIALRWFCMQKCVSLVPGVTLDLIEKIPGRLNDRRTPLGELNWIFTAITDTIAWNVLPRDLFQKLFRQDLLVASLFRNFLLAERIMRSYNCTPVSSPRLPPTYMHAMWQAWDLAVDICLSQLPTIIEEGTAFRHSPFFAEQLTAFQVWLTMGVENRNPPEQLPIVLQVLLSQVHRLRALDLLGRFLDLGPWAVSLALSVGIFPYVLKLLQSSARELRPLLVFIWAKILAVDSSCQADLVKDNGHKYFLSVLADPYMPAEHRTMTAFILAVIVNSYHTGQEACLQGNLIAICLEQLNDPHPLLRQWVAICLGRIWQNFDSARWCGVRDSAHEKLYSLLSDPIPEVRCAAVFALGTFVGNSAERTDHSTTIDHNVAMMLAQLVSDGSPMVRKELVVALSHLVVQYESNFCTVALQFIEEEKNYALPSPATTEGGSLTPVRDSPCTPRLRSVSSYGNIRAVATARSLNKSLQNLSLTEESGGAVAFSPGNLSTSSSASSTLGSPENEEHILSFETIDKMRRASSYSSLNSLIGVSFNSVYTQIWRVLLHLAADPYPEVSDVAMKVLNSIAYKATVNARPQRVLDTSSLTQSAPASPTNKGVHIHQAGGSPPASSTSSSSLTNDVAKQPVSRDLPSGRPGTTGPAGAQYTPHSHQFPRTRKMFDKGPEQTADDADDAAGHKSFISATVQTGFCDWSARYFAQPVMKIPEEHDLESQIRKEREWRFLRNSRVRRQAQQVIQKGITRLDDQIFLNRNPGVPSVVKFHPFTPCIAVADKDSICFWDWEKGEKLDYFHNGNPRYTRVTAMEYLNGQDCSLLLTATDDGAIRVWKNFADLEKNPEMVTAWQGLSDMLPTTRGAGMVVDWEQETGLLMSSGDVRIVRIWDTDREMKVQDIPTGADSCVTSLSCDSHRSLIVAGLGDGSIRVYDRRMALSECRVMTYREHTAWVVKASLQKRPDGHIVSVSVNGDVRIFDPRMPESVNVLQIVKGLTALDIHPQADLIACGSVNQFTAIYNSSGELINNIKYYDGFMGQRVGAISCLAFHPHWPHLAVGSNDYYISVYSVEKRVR
T1 sequence (Q9BVC4 whole entry, looked up, other chains not shown, canonical isoform): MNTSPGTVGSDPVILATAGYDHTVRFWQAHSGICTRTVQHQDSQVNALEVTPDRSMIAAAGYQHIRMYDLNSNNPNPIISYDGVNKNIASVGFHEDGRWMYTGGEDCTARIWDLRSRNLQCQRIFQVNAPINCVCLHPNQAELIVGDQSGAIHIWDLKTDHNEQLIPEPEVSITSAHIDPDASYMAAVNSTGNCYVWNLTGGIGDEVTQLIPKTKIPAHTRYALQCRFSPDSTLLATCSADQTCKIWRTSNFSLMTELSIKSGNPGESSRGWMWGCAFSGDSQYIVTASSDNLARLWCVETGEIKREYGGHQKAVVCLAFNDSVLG
Myc proto-oncogene protein (Homo sapiens), sequence (P01106 whole entry, canonical isoform): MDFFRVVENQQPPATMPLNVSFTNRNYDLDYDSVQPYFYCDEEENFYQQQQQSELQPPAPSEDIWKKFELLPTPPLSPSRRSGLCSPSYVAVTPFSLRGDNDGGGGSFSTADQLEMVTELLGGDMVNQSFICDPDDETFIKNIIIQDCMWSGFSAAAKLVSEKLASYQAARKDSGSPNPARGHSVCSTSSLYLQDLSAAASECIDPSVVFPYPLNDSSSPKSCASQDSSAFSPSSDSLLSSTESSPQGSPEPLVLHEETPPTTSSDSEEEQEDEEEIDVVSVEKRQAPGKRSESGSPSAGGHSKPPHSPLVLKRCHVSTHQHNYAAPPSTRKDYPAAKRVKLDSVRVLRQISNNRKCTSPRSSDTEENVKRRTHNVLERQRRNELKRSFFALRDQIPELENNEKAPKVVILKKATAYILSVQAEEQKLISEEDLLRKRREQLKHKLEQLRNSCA

CC[C@H](Nc1ncnc2[nH]cnc12)c1nc2cccc(F)c2c(=O)n1-c1ccccc1
inhibition [1]: inactive | inhibition [2]: < 50% | inhibition [3]: inactive | inhibition [4]: inactive | Activity [5]: Active

CC(C)Oc1ccc(-c2nn([C@@H](C)c3oc4ccc(F)cc4c(=O)c3-c3cccc(F)c3)c3ncnc(N)c23)cc1F [UMBRALISIB]
inhibition [6]: 43% | inhibition [7]: Active | inhibition [8]: Dose-Dependent Effect | inhibition [9]: Active | inhibition [10]: Active | inhibition [11]: Active | pEC50 [12]: 5.22 | inhibition [13]: Active | inhibition [14]: Active | Activity [15]: Active | Activity [16]: inactive | inhibition at 15 µM [17]: > 50% | inhibition [18]: Active | inhibition [19]: inactive | inhibition [20]: inactive | inhibition [21]: Active
